The record followed here is patent US20260327250A1, “3-ETHYLAMINO-INDOLE DIMERS AS SEROTONERGIC AGENTS USEFUL FOR THE TREATMENT OF DISORDERS RELATED THERETO” (MINDSET PHARMA INC., priority 2022, published 2026).

Where a name gives a salt, the structure may show the parent alone. Read-outs that look alike come from different tables or passages of the source.

Series [1] addresses T1, human 5-hydroxytryptamine receptor 2A (5-HT2A) (Homo sapiens, UniProt P28223).
T1 construct: expressed in transfected cells; host or cells: HTR2A&Ga15-HEK293
Nature of the series: Human 5-HT2A functional FLIPR assay (agonist mode). It is filed as cell-based. As to conditions: for RFU@10 μM: footnote: Curve fitting with activation (%) @ 10 mM with RFU. The procedure:
To assess the potential excitatory effects of compounds targeting on human 5-hydroxytryptamine receptor 2A (5-HT2A) under agonist mode
HTR2A&Ga15-HEK293 cells were cultured in DMEM medium containing 10% dialyzed FBS and 1× penicillin-streptomycin, 100 μg/mL Hygromycin B and 300 μg/mL G418. The cells were passaged about three times a week, maintained between ~30% to ~90% confluence.
• 1. The cell culture medium (DMEM medium containing 10% dialyzed FBS and 1× penicillin-streptomycin, 100 μg/mL Hygromycin B and 300 μg/mL G418), TrypLE™ Express and DPBS was warmed to R. T. in advance. • 2. For induction, 1 μg/ml tetracycline (final concentration) was added to cell culture medium and incubated for 48 hours prior to seeding cells into plate at 37° C., 5% (v/v) CO2. The cell culture medium was removed from flask. Washed cells with DPBS. • 3. 2 mL TrypLE™ Express was added to the flask, mixed well by gentle shaking and cells incubated at 37° C. for a few minutes. • 4. The cells morphological change was checked under microscope, and the digestion stopped by adding 4 mL cell culture medium to the flask when most of cells turned to round. • 5. The cell suspension was transferred into a 15 mL centrifuge tube, and then centrifuged at 1,200 rpm for 5 minutes. • 6. The supernatant was removed. The cell pellet was resuspended with 2 mL cell culture medium. • 7. The cell density was counted using cell counter. Only cells with >85% viability were used for the assay. • 8. Cells were diluted to 6.67×10^5/mL with cell culture medium. • 9. 30 μL/well cell suspensions was added into a 384-well cell plate (The cell density was 20,000 cells/well). • 10. The cell plate was incubated overnight at 37° C., 5% (v/v) CO2. 2.3 Cell handling • 1. On the day of experiments, culture medium was removed from the cell plate. • 12. 10 μL of assay buffer (20 mM HEPES, in 1× HBSS, pH 7.4) was added to each well of the cell plate. • 3. 2×dye solution was prepared following the manual of the FLIPR® Calcium 6 Assay Kit: • i. The dye was diluted with assay buffer. • ii. Probenecid was added to the final concentration of 5 mM. • iii. Vortexed vigorously for 1-2 minutes. • 4. 10 μL of 2× dye solution was added to each well of the cell plate • 5. The cell plate was placed on plate shaker, and was shaken at 600 rpm for 2 minutes. • 6. The plate was incubated at 37° C. for 2 hours followed by an additional 15-minute incubation at 25° C. 2.4 Prepare 3×compound • 1, Serotonin HCl was prepared to the concentration of 10 mM with DMSO. • 2. The test compounds were prepared to the concentration of 10 mM with DMSO. • 3. The compounds were added to a 384-well compound source plate. • 4. 3-folds serial dilutions were performed with DMSO. • 5. 90 nL/well of serial diluted compounds were transferred from source plate to a 384-well compound plate by using an Echo. • 6. 30 μL/well of assay buffer (20 mM HEPES in 1× HBSS, pH 7.4) were added to the compound plate. • 7. Mixed on the plate-on-plate shaker for 2 minutes.
• 1, After the cells were incubated with dye solution, the cell plate, compound plate containing 3×compounds and FLIPR tips were placed into FLIPR. • 2, 10 μL of 3×compounds were transferred from the compound plate to the cell plate by FLIPR. • 3, The plate was read for 160 sec with 1 sec interval to obtain the data of agonist mode.
• 1, The normalized fluorescence reading (RFU) was calculated as shown below, wherein Fmax and Fmin stand for maximum and minimum of calcium signal during defined time window:
[formula] • 2. EC50 was calculated by fitting RFU against log of compound concentrations with Hill equation using XLfit.

A further series deals with T2, human 5-HT1A receptor (Homo sapiens, UniProt P08908).
T2 sequence (P08908 1-422): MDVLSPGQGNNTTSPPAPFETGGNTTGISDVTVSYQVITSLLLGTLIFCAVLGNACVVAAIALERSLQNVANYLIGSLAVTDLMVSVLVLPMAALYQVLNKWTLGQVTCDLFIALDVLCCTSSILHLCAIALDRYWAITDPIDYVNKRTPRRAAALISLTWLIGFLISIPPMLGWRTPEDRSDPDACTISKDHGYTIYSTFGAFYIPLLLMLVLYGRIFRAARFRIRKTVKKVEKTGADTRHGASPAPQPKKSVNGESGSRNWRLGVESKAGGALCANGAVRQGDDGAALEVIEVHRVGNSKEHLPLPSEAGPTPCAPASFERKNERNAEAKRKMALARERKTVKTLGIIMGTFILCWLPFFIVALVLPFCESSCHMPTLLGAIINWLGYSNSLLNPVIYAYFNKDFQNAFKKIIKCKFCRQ
As to the kind of experiment: Human 5-HT1A radioligand binding assay ([3H]-8-Hydroxy-DPAT). The procedure:
The objective of this study was to evaluate the binding properties of test compounds on 5-hydroxytryptamine receptor 1A.
• 1. The assay buffer was prepared following the table below.
pH was adjusted to 7.4 followed by […] sterile filtration • 1. 8 doses of reference and test compounds were prepared starting from 10 mM stock solution as required by 5-fold serial dilutions with 100% (v/v) DMSO. • 2. UniFilter-96 GF/B Plate was Pretreated: • i. 50 μl/well of 0.5% (v/v) PEI was added to UniFilter-96 GF/B plates. The plates were sealed and incubated at 4° C. for 3 hrs. • ii. After incubation, the plates were washed 3 times with ice-cold wash buffer (50 mM Tris, pH7.4).
• i. Cell membrane was diluted with assay buffer and 100 μl/well was added to 96 round well plates to reach a concentration of 20 μg/well. • ii. 8 concentrations of reference or test compounds were prepared and 50 μl/well was added to 96 round deep well plates. • iii. [3H]-8-Hydroxy-DPAT was diluted with assay buffer to 2 nM (4× final concentration) and 50 μl/well was added to 96 round well plates. • 4. The plate was centrifuged at 1000 rpm for 30 secs and then agitated at 600 rpm, R.T. for 5 min. • 5. The plates were sealed and the plate was incubated at 27° C. for 90 min. • 6. The incubation was stopped by vacuum filtration onto GF/B filter plates followed by 4 times washing with ice-cold wash buffer (50 mM Tris, pH7.4). • 7. The plates were dried at 37° C. for 45 min. • 8. The filter plates were sealed and 40 μl/well of scintillation cocktail was added. • 9. The plate was read by using a Microbeta^2 microplate counter.
• 1. For reference and test compounds, the results were expressed as % Inhibition, using the normalization equation: N=100-100×(U−C2)/(C1−C2), where U is the unknown value, C1 is the average of high controls, and C2 is the average of low controls. • 2. The IC50 was determined by fitting percentage of inhibition as a […] of compound concentrations with Hill equation using XLfit. Results and Discussion

The next series is described as follows: in vitro. As to conditions: mouse, microsomes.
The mark [2] stands for this setting: FLIPR, agonist mode, ND = Not detected, read-out: h5-HT2A, EC50.
Where [3] appears, read: [3H]-8-Hydroxy-DPAT, 27° C., 90 min, read-out: h5-HT1A, IC50.

T1 sequence (P28223 whole entry): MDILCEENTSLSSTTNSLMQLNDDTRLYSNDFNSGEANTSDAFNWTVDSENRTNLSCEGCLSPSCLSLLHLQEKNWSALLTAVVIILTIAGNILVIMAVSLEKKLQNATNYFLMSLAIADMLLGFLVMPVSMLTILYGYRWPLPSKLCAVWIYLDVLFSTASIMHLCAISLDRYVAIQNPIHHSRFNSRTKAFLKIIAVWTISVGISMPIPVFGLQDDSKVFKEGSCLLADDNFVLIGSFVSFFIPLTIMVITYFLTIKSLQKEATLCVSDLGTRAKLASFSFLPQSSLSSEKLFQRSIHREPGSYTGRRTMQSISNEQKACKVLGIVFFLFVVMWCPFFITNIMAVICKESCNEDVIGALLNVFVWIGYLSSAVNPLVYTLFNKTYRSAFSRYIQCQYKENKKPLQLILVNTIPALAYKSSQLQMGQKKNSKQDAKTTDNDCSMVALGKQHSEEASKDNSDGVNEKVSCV
Description for in vitro: The concentrations of parent compounds in reaction systems were evaluated by LC-MS/MS for estimating the stability in pooled human, male rat and male mouse liver microsomes. The in vitro intrinsic clearances of test compounds were determined as well. Protocol
A master solution in the “Incubation Plate” containing phosphate buffer, ultra-pure H2O, MgCl2 solution and liver microsomes was made according to Table 6. The mixture was pre-warmed at 37° C. water bath for 5 minutes.
The reaction was started with the addition of 4 μL of 200 μM exemplary test compounds of the application or control compounds to each master solution to get the final concentration of 2 μM. This study was performed in duplicate.
Aliquots of 50 μL were taken from the reaction solution at 0, 15, 30, 45 and 60 minutes. The reaction solutions were stopped by the addition of 4 volumes of cold methanol with IS (100 nM alprazolam, 200 nM imipramine, 200 nM labetalol and 2 μM ketoprofen). Samples were centrifuged at 3,220 g for 40 minutes. Aliquot of 90 μL of the supernatant was mixed with 90 μL of ultra-pure H2O and then was used for LC-MS/MS analysis.
All calculations were carried out using Microsoft Excel. Peak area ratios of test compound to internal standard (listed in the below table) were determined from extracted ion chromatograms.
All calculations were carried out using Microsoft Excel. Peak areas were determined from extracted ion chromatograms. The slope value, k, was determined by linear regression of the natural logarithm of the remaining percentage of the parent drug vs. incubation time curve.
The in vitro half-life (in vitro t½) was determined from the slope value:
Conversion of the in vitro t½ (min) into the in vitro intrinsic clearance (in vitro CLint, in μL/min/mg proteins) was done using the following equation (mean of duplicate determinations):

Consider `CC(C)N(CCc1c[nH]c2cccc(O)c12)C(C)C` [Compound 7], for which the “RFU@10 μM” value in series [1] was found to be 6358 RFU. Moreover, the EC50 (usually the concentration giving half of the maximal effect) in series [1] (setting [2]) came to 81.4 nM. Besides, the IC50 (commonly the concentration at which inhibition is half-maximal) at human 5-HT1A receptor (setting [3]) was 4.69 µM.

`CN(C)CCc1c[nH]c2cccc(OC(=O)CCCC(=O)Oc3cccc4[nH]cc(CCN(C)C)c34)c12` [Compound I-24, Bis(3-(2-(dimethylamino)ethyl)-1H-indol-4-yl) glutarate]: the “RFU@10 μM” value in series [1] worked out at 3061 RFU. For the same compound, the EC50 in series [1] (setting [2]) amounted to 24.9 nM. Also, the IC50 at human 5-HT1A receptor (setting [3]) was 0.336 µM. In the series “in vitro”, the half-life (usually how long it takes for the measured level to halve) at 2 µM is under 4.51 min; the microsomal CLint – broadly, a measure of how fast metabolising enzymes remove a compound, apart from limits set by blood flow – at 2 µM is over 307 µL/min/mg; the amount remaining (usually the share of the starting amount still present when the sample was taken) at 1 h, 2 µM was determined as 0%.

Turning to `CC(C)N(CCc1c[nH]c2cccc(OC(=O)CCCC(=O)Oc3cccc4[nH]cc(CCN(C(C)C)C(C)C)c34)c12)C(C)C` [Compound I-37, Bis(3-(2-(diisopropylamino)ethyl)-1H-indol-4-yl) glutarate dihydrochloride], in series [1], the EC50 amounted to 158 nM and the “RFU@10 μM” value came to 6768 RFU. Further, on human 5-HT1A receptor, the 50% inhibitory concentration (IC50) was found to be 3.96 µM. Besides, in “in vitro”, the half-life at 2 µM is under 4.51 min; the microsomal CLint at 2 µM is over 307 µL/min/mg; the amount remaining at 1 h, 2 µM came to 0%.

As for `CN(C)CCc1c[nH]c2cccc(O)c12` [Psilocin, 4-hydroxy-N,N-dimethyltryptamine, reference compound], in series [1], the “RFU@10 μM” value amounted to 308 RFU. In the series “in vitro”, this compound gave a fraction remaining at 1 h, 2 µM of 96.9%.

Take `CN(C)CCc1c[nH]c2cccc(OP(=O)(O)O)c12` [Psilocybin]: in series [1], the “RFU@10 μM” value stood at 257 RFU. For the same compound, the IC50 at human 5-HT1A receptor (setting [3]) stood at 4.79 µM.
